Source: patent US12295396B2, “Antagonists of T2R54 and compositions and uses thereof” (Firmenich Incorporated, priority 2018, dated 2025)

molecular target: T1, hT2R54 (Homo sapiens, UniProt P59534); test: Cell-based assay for measuring hT2R54 inhibition (FLIPR calcium, Fluo4AM, acetaminophen as bitter agonist); conditions: Table 7; cells stably expressing hT2R54 and a promiscuous G protein; read-out: hT2R54 IC50
T1 construct: expressed in transfected cells; it overexpresses a promiscuous G protein
T1 sequence (P59534 1-338): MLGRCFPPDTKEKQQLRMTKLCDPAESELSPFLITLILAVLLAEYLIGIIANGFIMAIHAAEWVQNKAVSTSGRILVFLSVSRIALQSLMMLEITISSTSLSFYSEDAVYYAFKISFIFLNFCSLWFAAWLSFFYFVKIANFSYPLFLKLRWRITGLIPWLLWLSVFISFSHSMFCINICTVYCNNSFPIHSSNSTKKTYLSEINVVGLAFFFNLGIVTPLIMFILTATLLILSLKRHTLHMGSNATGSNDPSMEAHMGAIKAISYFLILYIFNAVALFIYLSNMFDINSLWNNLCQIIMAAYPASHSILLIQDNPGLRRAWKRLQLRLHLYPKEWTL
Summary of the method: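 The readout was FLIPR calcium (Fluo4AM, 10 s baseline, 3 min post-addition) in cells stably carrying hT2R54 plus a promiscuous G protein, with host cells lacking hT2R54 as counter-control. Acetaminophen concentration series were tested with and without set test-compound levels. Half-maximal block of the agonist response gave the EC50/IC50.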

| Compound | IC50 [nM] |
| --- | --- |
| CC(=O)c1cc2c(cc1NC(=O)CN(C)C1CCN(C(=O)CC(C)C)CC1)OCO2 [compound 184, N-(6-Acetylbenzo[d][1,3]dioxol-5-yl)-2-(methyl(1-(3-methylbutanoyl)piperidin-4-yl)amino)acetamide] | 98 |
| CC(=O)c1cc2c(cc1NC(=O)CN(C)C1CCCN(C(=O)CC(C)C)C1)OCO2 (stereo not drawn) [compound 185] | 50 |
| CC(=O)c1cc2c(cc1NC(=O)CN(C)C1CCCN(C(=O)c3ccco3)C1)OCO2 (stereo not drawn) [compound 186] | 20 |
| CC(=O)c1cc2c(cc1NC(=O)CN(C)C1CCCN(C(=O)c3cccnc3)C1)OCO2 (stereo not drawn) [compound 187] | 100 |
| CCOC(=O)N1CCCC(N(C)CC(=O)Nc2cc3c(cc2C(C)=O)OCO3)C1 (stereo not drawn) [compound 188] | 90 |
| CCNC(=O)N1CCCC(N(C)CC(=O)Nc2cc3c(cc2C(C)=O)OCO3)C1 (stereo not drawn) [compound 189] | 30 |
| CCCS(=O)(=O)N1CCCC(N(C)CC(=O)Nc2cc3c(cc2C(C)=O)OCO3)C1 (stereo not drawn) [compound 190] | 40 |

same assay, conditions: Table 8; read-out: hT2R54 IC50

| Compound | IC50 [nM] |
| --- | --- |
| CC(=O)c1cc2c(cc1NC(=O)CC1CCCN(C(=O)CC(C)C)C1)OCO2 (stereo not drawn) [compound 193, N-(6-acetylbenzo[d][1,3]dioxol-5-yl)-2-(1-(3-methylbutanoyl)piperidin-3-yl)acetamide] | 17 |
| CC(=O)c1cc2c(cc1NC(=O)CC1CCCN(C(=O)c3ccco3)C1)OCO2 (stereo not drawn) [compound 194, N-(6-Acetylbenzo[d][1,3]dioxol-5-yl)-2-(1-(furan-2-carbonyl)piperidin-3-yl)acetamide] | 6 |
| CC(=O)c1cc2c(cc1NC(=O)CC1CCCN(C(=O)c3cccs3)C1)OCO2 (stereo not drawn) [compound 195, N-(6-Acetylbenzo[d][1,3]dioxol-5-yl)-2-(1-(thiophene-2-carbonyl)piperidin-3-yl)acetamide] | 8 |
| CC(=O)c1cc2c(cc1NC(=O)CC1CCCN(C(=O)c3ccoc3)C1)OCO2 (stereo not drawn) [compound 196, N-(6-Acetylbenzo[d][1,3]dioxol-5-yl)-2-(1-(furan-3-carbonyl)piperidin-3-yl)acetamide] | 184 |
| CC(=O)c1cc2c(cc1NC(=O)CC1CCN(C(=O)c3ccco3)CC1)OCO2 [compound 197, N-(6-Acetylbenzo[d][1,3]dioxol-5-yl)-2-(1-(furan-2-carbonyl)piperidin-4-yl)acetamide] | 6 |
| CC(=O)c1cc2c(cc1NC(=O)CC1CCN(C(=O)CC(C)C)CC1)OCO2 [compound 198, N-(6-acetylbenzo[d][1,3]dioxol-5-yl)-2-(1-(3-methylbutanoyl)piperidin-4-yl)acetamide] | 45 |
| CC(=O)c1cc2c(cc1NC(=O)CC1CCN(C(=O)c3cccs3)CC1)OCO2 [compound 199, N-(6-Acetylbenzo[d][1,3]dioxol-5-yl)-2-(1-(thiophene-2-carbonyl)piperidin-4-yl)acetamide] | 12 |
| CC(=O)c1cc2c(cc1NC(=O)CC1CCN(C(=O)c3ccoc3)CC1)OCO2 [compound 200, N-(6-Acetylbenzo[d][1,3]dioxol-5-yl)-2-(1-(furan-3-carbonyl)piperidin-4-yl)acetamide] | 149 |
| CC(=O)c1cc2c(cc1NC(=O)CC1CCN(C(=O)c3cnn(C)c3)CC1)OCO2 [compound 201, N-(6-Acetylbenzo[d][1,3]dioxol-5-yl)-2-(1-(1-methyl-1H-pyrazole-4-carbonyl)piperidin-4-yl)acetamide] | 339 |
| CC(=O)c1cc2c(cc1NC(=O)CC1CCCN(C(C)=O)C1)OCO2 (stereo not drawn) [compound 202] | 35 |
| CCC(=O)N1CCCC(CC(=O)Nc2cc3c(cc2C(C)=O)OCO3)C1 (stereo not drawn) [compound 203] | 17 |
| CCCC(=O)N1CCCC(CC(=O)Nc2cc3c(cc2C(C)=O)OCO3)C1 (stereo not drawn) [compound 204] | 16 |
| CC(=O)c1cc2c(cc1NC(=O)CC1CCCN(C(=O)C(C)C)C1)OCO2 (stereo not drawn) [compound 205] | 12 |
| CC(=O)c1cc2c(cc1NC(=O)C[C@@H]1CCCN(C(=O)CC(C)C)C1)OCO2 [compound 206] | 25 |
| CC(=O)c1cc2c(cc1NC(=O)CC1CCCN(C(=O)CC(C)(C)C)C1)OCO2 (stereo not drawn) [compound 207] | 360 |
| CCC(C)C(=O)N1CCCC(CC(=O)Nc2cc3c(cc2C(C)=O)OCO3)C1 (stereo not drawn) [compound 208] | 170 |
| CC(=O)c1cc2c(cc1NC(=O)CC1CCCN(C(=O)C3CCCO3)C1)OCO2 (stereo not drawn) [compound 209] | 56 |
| CC(=O)c1cc2c(cc1NC(=O)CC1CCCN(C(=O)C3CCOC3)C1)OCO2 (stereo not drawn) [compound 210] | 1340 |
| CC(=O)c1cc2c(cc1NC(=O)CC1CCCN(C(=O)C3CCCCO3)C1)OCO2 (stereo not drawn) [compound 211] | 18 |
| CC(=O)c1cc2c(cc1NC(=O)CC1CCCN(C(=O)CN(C)C)C1)OCO2 (stereo not drawn) [compound 212] | > 1000 |
| CCOC(=O)N1CCCC(CC(=O)Nc2cc3c(cc2C(C)=O)OCO3)C1 (stereo not drawn) [compound 213] | 50 |
| CCCOC(=O)N1CCCC(CC(=O)Nc2cc3c(cc2C(C)=O)OCO3)C1 (stereo not drawn) [compound 214] | 320 |
| CC(=O)c1cc2c(cc1NC(=O)CC1CCCN(C(=O)OC(C)C)C1)OCO2 (stereo not drawn) [compound 215] | 160 |
| CC(=O)c1cc2c(cc1NC(=O)CC1CCCN(C(=O)c3ccccc3)C1)OCO2 (stereo not drawn) [compound 216] | 80 |
| CC(=O)c1cc2c(cc1NC(=O)CC1CCCN(C(=O)c3ccccc3O)C1)OCO2 (stereo not drawn) [compound 217] | 480 |
| CC(=O)c1cc2c(cc1NC(=O)CC1CCCN(C(=O)c3cccc(O)c3)C1)OCO2 (stereo not drawn) [compound 218] | > 1000 |
| CC(=O)c1cc2c(cc1NC(=O)CC1CCCN(C(=O)c3ccc(O)cc3)C1)OCO2 (stereo not drawn) [compound 219] | 1460 |

| Compound | IC50 [nM] |
| --- | --- |
| CC(=O)c1cc2c(cc1NC(=O)C[C@@H]1CCCN(C(=O)c3ccco3)C1)OCO2 [compound 220] | ~10 |
| CC(=O)c1cc2c(cc1NC(=O)CC1CCCN(C(=O)c3cnn(C)c3)C1)OCO2 (stereo not drawn) [compound 221] | 60 |
| CC(=O)c1cc2c(cc1NC(=O)CC1CCCN(S(C)(=O)=O)C1)OCO2 (stereo not drawn) [compound 222] | 60 |
| CCS(=O)(=O)N1CCCC(CC(=O)Nc2cc3c(cc2C(C)=O)OCO3)C1 (stereo not drawn) [compound 223] | 40 |
| CCCS(=O)(=O)N1CCCC(CC(=O)Nc2cc3c(cc2C(C)=O)OCO3)C1 (stereo not drawn) [compound 224] | 40 |
| CCCCS(=O)(=O)N1CCCC(CC(=O)Nc2cc3c(cc2C(C)=O)OCO3)C1 (stereo not drawn) [compound 225] | 70 |
| CC(=O)c1cc2c(cc1NC(=O)CC1CCCN(S(=O)(=O)CC(C)C)C1)OCO2 (stereo not drawn) [compound 226] | 160 |
| CC(=O)c1cc2c(cc1NC(=O)CC1CCCN(S(=O)(=O)c3ccco3)C1)OCO2 (stereo not drawn) [compound 227] | 130 |
| COCc1ccc(C(=O)N2CCCC(CC(=O)Nc3cc4c(cc3C(C)=O)OCO4)C2)o1 (stereo not drawn) [compound 228] | 20 |
| CC(=O)c1cc2c(cc1NC(=O)CC1CN(C(=O)CC(C)C)CCO1)OCO2 (stereo not drawn) [compound 229] | 220 |
| CCOC(=O)N1CCOC(CC(=O)Nc2cc3c(cc2C(C)=O)OCO3)C1 (stereo not drawn) [compound 230] | 160 |
| CC(=O)c1cc2c(cc1NC(=O)CC1CN(C(=O)c3ccco3)CCO1)OCO2 (stereo not drawn) [compound 231] | 240 |
| CC(=O)c1cc2c(cc1NC(=O)CC1CCN(C(C)=O)CC1)OCO2 [compound 232] | > 1000 |
| CCC(=O)N1CCC(CC(=O)Nc2cc3c(cc2C(C)=O)OCO3)CC1 [compound 233] | 86 |
| CCCC(=O)N1CCC(CC(=O)Nc2cc3c(cc2C(C)=O)OCO3)CC1 [compound 234] | > 1000 |
| CCCCC(=O)N1CCC(CC(=O)Nc2cc3c(cc2C(C)=O)OCO3)CC1 [compound 235] | 77 |
| CC(=O)c1cc2c(cc1NC(=O)CC1CCN(C(=O)C(C)C)CC1)OCO2 [compound 236] | > 1000 |
| CC(=O)c1cc2c(cc1NC(=O)CC1CCN(C(=O)C(C)(C)C)CC1)OCO2 [compound 237] | 190 |
| CC(=O)c1cc2c(cc1NC(=O)CC1CCN(C(=O)C3CC3)CC1)OCO2 [compound 238] | 470 |
| CC(=O)c1cc2c(cc1NC(=O)CC1CCN(C(=O)C3CCCCC3)CC1)OCO2 [compound 239] | > 1000 |
| CCOC(=O)N1CCC(CC(=O)Nc2cc3c(cc2C(C)=O)OCO3)CC1 [compound 240] | 34 |
| CCCOC(=O)N1CCC(CC(=O)Nc2cc3c(cc2C(C)=O)OCO3)CC1 [compound 241] | 72 |
| CC(=O)c1cc2c(cc1NC(=O)CC1CCN(C(=O)C3CCCO3)CC1)OCO2 (stereo not drawn) [compound 242] | 68 |
| CC(=O)c1cc2c(cc1NC(=O)CC1CCN(C(=O)C3CCCCO3)CC1)OCO2 (stereo not drawn) [compound 243] | 96 |
| CC(=O)c1cc2c(cc1NC(=O)CC1CCN(C(=O)c3cccnc3)CC1)OCO2 [compound 244] | 51 |
| COCc1cccc(C(=O)N2CCC(CC(=O)Nc3cc4c(cc3C(C)=O)OCO4)CC2)c1 [compound 245] | 44 |
| CC(=O)c1cc2c(cc1NC(=O)CC1CCN(C(=O)c3ccon3)CC1)OCO2 [compound 246] | 2310 |

same assay, conditions: given in example heading; read-out: IC50

| Compound | IC50 [nM] |
| --- | --- |
| CCOC(=O)C1CN(C(=O)c2ccco2)CCN1CC(=O)Nc1cc2c(cc1C(C)=O)OCO2 (stereo not drawn) [compound 191, Ethyl 1-(2-((6-Acetylbenzo[d][1,3]dioxol-5-yl)amino)-2-oxoethyl)-4-(furan-2-carbonyl)piperazine-2-carboxylate] | 16 |
| CCOC(=O)C1CN(C(=O)CC(C)C)CCN1CC(=O)Nc1cc2c(cc1C(C)=O)OCO2 (stereo not drawn) [compound 192, Ethyl 1-(2-((6-Acetylbenzo[d][1,3]dioxol-5-yl)amino)-2-oxoethyl)-4-(3-methylbutanoyl)piperazine-2-carboxylate] | 57 |
